Measured values as given in US20150133524A1, “PYRUVATE DEHYROGENASE KINASES AS THERAEUTIC TARGETS FOR CANCER AND ISCHEMIC DISEASES” (THE JOHNS HOPKINS UNIVERSITY, priority 2004, published 2015).
Where two headings read alike, the source gives them in different places.

Columns and labels:
PDK1 = test: Immunoblot of PDK1 protein expression in P493-6 cells; format: cell-based, human; conditions: for PDK1 expression: P493-6 cells after electroporation with 100 nM siRNA, FIG. 4A
P493-6 cells = test: Growth curves of P493-6 cells electroporated with siRNA; format: cell-based, human; conditions: 100 nM siRNA electroporated; hypoxia (0.1% O2); versus scrambled control siRNA; FIG. 4B
Experimental: siRNA targeting human PDK1 was designed and purchased from Dharmacon Research Inc (Lafayette, Colo.). 3×10^6 P493-6 cells were electroporated (1500 uF and 240 volts) with 100 nM of PDK1 siRNA (5′-CUACAUGAGUCGCAUUUCAdTdT-3′) (SEQ ID NO: 1). or scrambled control siRNA (5′-CACGCUCGGUCAAAAGGUUdTdT-3′) (SEQ ID NO: 7). in a 4 mm cuvette (BTX) using a Gene Pulser Xcell (Bio-Rad, Hercules, Calif.). The following day, 5×10^5 viable cells were subjected to hypoxic exposure (0.1% O2). At indicated times, viable cells were counted for growth curve, and the cellular proteins were harvested for Western blot analysis.

Hif1a−/− MEFs [1] = test: Cell proliferation assay (viable cell count) of Hif1a−/− MEFs
Hif1a−/− MEFs [2] = tested on: Hif1a−/− MEFs

Compound: 5′-CACGCUCGGUCAAAAGGUUdTdT-3′ (dTdT overhang, complementary strand not cited, chemistry not fully specified) [scrambled control siRNA]
- PDK1 expression (PDK1): did not reduce PDK1 expression

Compound: 5′-CUACAUGAGUCGCAUUUCAdTdT-3′ (dTdT overhang, complementary strand not cited, chemistry not fully specified) [PDK1 siRNA, siRNA targeting human PDK1, designed and purchased from Dharmacon]
- growth of P493-6 cells in hypoxia (P493-6 cells): impaired
- PDK1 expression (PDK1): reduced

Compound: [Cl-].[Cl-].[Co+2] [CoCl2]
- PDK1 levels (PDK1): increased

Compound: C=C(C)[C@H]1Cc2c(ccc3c2O[C@@H]2COc4cc(OC)c(OC)cc4[C@@H]2C3=O)O1 [Rotenone, rotenone]
- rescue (growth) of hypoxic Hif1a−/− mouse embryo fibroblasts (Hif1a−/− MEFs [1]; 0.1 μM rotenone, hypoxic (0.5% O2), FIG. 3D): able to rescue
- proliferation of normoxic Hif1a−/− MEFs (Hif1a−/− MEFs [1]; 0.1 μM rotenone, normoxic (20% O2), FIG. 3D): inhibited proliferation

Compound: CO/C(=C/C(N)=O)[C@H](C)[C@H](/C=C/c1csc(-c2csc([C@@H](C)/C=C/C=C/C(C)C)n2)n1)OC [myxothiazol]
- toxicity to normoxic and hypoxic Hif1a−/− MEFs (Hif1a−/− MEFs [1]; both normoxic and hypoxic cells): toxic

Compound: antimycin A
- toxicity to normoxic and hypoxic Hif1a−/− MEFs (Hif1a−/− MEFs [2]): toxic
